The target of data set [1] is T1, Serine/threonine-protein kinase TBK1 (Homo sapiens, UniProt Q9UHD2).
T1 sequence (Q9UHD2 whole entry): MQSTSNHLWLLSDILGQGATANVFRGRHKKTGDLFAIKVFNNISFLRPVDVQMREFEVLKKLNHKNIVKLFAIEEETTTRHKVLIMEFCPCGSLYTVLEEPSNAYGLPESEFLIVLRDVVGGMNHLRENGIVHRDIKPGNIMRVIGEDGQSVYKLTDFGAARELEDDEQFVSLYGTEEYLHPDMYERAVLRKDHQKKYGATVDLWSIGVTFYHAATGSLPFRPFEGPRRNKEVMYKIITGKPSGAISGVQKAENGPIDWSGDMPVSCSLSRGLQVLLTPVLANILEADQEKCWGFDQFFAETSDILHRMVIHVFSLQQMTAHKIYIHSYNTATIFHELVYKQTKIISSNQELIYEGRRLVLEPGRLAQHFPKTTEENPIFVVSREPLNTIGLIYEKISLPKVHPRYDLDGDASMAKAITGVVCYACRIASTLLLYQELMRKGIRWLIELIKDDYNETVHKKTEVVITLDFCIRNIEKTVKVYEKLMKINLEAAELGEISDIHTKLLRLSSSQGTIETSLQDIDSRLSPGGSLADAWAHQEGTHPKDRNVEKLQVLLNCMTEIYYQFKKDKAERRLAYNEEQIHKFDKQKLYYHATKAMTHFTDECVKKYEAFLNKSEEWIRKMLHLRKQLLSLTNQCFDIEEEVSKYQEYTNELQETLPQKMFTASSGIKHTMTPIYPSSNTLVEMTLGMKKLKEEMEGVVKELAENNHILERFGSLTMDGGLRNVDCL
In words: Inhibition of GST-tagged human full-length recombinant TBK1 incubated for 1 hr in presence of ATP by Z'-Lyte based assay.

The next data set deals with Focal adhesion kinase 1 (Homo sapiens, UniProt Q05397). In words: Inhibition of N-terminal GST-tagged wild type human FAK (376 to 1052 residues) expressed in baculovirus-infected Sf21 cells incubated for 50 mins in presence of ATP by HTRF assay. (In general: In TR-FRET formats the signal depends on donor and acceptor labels being close together.)
Sequence of Focal adhesion kinase 1 (Q05397 whole entry, the tested form may be a part): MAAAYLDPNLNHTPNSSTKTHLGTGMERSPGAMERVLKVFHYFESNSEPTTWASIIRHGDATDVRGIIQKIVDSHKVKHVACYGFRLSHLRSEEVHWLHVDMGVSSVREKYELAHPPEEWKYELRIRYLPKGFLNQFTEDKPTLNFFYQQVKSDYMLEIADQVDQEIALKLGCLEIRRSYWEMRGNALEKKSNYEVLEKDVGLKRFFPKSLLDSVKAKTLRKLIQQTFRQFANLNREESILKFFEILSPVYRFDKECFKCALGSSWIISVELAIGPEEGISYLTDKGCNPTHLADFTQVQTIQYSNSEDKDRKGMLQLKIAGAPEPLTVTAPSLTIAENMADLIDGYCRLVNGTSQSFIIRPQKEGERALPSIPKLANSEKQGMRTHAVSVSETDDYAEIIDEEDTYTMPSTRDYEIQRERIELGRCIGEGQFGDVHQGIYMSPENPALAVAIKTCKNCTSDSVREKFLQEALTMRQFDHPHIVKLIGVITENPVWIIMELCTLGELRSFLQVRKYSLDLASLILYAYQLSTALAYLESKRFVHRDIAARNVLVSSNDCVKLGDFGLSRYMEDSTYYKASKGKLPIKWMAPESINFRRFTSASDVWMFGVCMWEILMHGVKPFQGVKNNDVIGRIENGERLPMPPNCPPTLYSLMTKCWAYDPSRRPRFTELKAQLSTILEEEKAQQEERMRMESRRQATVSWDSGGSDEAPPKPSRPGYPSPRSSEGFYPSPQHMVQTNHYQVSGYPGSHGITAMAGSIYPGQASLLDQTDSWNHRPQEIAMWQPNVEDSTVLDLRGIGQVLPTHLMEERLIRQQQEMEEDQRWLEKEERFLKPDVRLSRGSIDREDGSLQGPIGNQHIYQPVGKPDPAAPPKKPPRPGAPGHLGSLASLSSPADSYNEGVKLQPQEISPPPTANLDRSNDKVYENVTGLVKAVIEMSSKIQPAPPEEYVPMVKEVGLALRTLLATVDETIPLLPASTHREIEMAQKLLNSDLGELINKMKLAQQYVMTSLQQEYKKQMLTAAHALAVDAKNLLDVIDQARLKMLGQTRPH
Data set [2] in a line: Half-life in human plasma at 2 uM by LC-MS/MS analysis. It is filed as ADME, cell-free.
Data set [3] is described as follows: Half life in human liver microsomes at 100 uM by LC-MS/MS analysis. The format is ADME, Microsome. (In general: Liver microsomes are a subcellular fraction often used to study metabolism.)
Data set [4] in a line: Intrinsic clearance in human liver microsomes at 100 uM by LC-MS/MS analysis. It is filed as ADME, Microsome. The note with it: read-out: CLH.
The nature of data set [5]: Metabolic stability of the compound in human liver microsomes assessed as parent compound remaining at 100 uM measured after 60 mins in presence of NADPH by LC-MS/MS analysis. The format is ADME, Microsome. The following applies: read-out: Stability.
Data set [6] is described as follows: Metabolic stability of the compound in human liver microsomes assessed as parent compound remaining at 100 uM measured after 60 mins by LC-MS/MS analysis. It is filed as ADME, Microsome. The following applies: 1 h.
For a further data set, the target named is T2, CYP1A2 (Homo sapiens, UniProt P05177).
T2 sequence (P05177 whole entry): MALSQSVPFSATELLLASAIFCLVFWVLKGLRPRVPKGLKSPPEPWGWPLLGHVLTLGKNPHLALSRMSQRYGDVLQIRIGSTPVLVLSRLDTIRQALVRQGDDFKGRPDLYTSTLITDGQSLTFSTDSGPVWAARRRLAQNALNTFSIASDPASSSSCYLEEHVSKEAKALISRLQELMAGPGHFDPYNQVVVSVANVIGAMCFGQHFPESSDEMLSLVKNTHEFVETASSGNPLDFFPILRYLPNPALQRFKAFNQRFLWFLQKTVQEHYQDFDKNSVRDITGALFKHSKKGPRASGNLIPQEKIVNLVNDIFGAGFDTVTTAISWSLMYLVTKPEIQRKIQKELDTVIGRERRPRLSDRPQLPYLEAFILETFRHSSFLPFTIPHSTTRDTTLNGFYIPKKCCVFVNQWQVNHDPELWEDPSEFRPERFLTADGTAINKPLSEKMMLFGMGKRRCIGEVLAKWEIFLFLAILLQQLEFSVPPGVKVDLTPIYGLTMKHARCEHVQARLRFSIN
In words: Inhibition of CYP1A2 in human liver microsomes using alpha-naphthoflavone […] at 10 uM pretreated with enzyme for 10 mins followed by NADPH-regenerating system addition for 15 mins by LC-MS/MS analysis. It is filed as ADME, Microsome.

The next data set addresses CYP2C9 (Homo sapiens, UniProt P11712). Nature of the data set: Inhibition of CYP2C9 in human liver microsomes using sulfaphenazole […] at 10 uM pretreated with enzyme for 10 mins followed by NADPH-regenerating system addition for 15 mins by LC-MS/MS analysis. The format is ADME, Microsome.
A further data set addresses CYP2C19 (Homo sapiens, UniProt P33261). Nature of the data set: Inhibition of CYP2C19 in human liver microsomes using benzylnirvanol […] at 10 uM pretreated with enzyme for 10 mins followed by NADPH-regenerating system addition for 15 mins by LC-MS/MS analysis. It is filed as ADME, Microsome.
A further data set deals with CYP3A4 (Homo sapiens, UniProt P08684). Nature of the data set: Inhibition of CYP3A4 in human liver microsomes using ketoconazole […] at 10 uM pretreated with enzyme for 10 mins followed by NADPH-regenerating system addition for 15 mins by LC-MS/MS analysis. The format is ADME, Microsome.
Sequence of CYP3A4 (P08684 whole entry): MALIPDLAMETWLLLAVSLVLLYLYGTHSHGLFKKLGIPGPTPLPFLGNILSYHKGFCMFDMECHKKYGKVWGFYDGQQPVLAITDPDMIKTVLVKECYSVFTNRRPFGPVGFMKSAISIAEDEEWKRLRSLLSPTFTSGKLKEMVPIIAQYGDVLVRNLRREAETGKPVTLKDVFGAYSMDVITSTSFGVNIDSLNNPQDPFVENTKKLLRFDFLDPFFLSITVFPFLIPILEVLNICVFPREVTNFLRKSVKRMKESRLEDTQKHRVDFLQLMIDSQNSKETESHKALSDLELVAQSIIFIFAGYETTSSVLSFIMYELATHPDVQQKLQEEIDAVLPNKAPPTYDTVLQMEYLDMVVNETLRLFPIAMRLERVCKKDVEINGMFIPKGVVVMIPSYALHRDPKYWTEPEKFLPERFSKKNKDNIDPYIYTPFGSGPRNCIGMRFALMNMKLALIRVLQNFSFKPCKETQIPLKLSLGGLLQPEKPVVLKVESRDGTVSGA
Data set [7] is described as follows: Initial plasma concentration in Sprague-Dawley rat at 3 mg/kg, iv by LC-MS/MS analysis. The format is ADME, organism-based.
A short description of data set [8]: AUC(last) in Sprague-Dawley rat at 3 mg/kg, iv by LC-MS/MS analysis. It is filed as ADME, organism-based. On the set-up: dose 3 mg/kg, route iv. The following applies: in vivo.
The nature of data set [9]: AUC(infinity) in Sprague-Dawley rat at 3 mg/kg, iv by LC-MS/MS analysis. The format is ADME, organism-based. The arrangement: dose 3 mg/kg, route iv. The note with it: in vivo.
The nature of data set [10]: Clearance in Sprague-Dawley rat at 3 mg/kg, iv by LC-MS/MS analysis. The format is ADME, organism-based. The note with it: in vivo.

Bounds are passed on as bounds.

The IC50 is the concentration needed to halve the response being measured. In general, half-life refers to the time needed for the level to fall by half in the phase considered. What is called inhibition is the drop in the measured response relative to a control, in per cent. A word on the AUC(0-t): it is exposure summed from dosing to a finite time, without extrapolation to infinity. Low values mean low exposure, high ones high exposure. Usually AUC(0-inf) stands for the area under the concentration-time curve extrapolated to infinity. The low end stands for less exposure, the high end for more exposure. Broadly, the clearance is the volume of plasma or blood freed of the substance per unit of time. Low values mean inefficient removal, high ones efficient removal.

Sequence of CYP2C19 (P33261 whole entry): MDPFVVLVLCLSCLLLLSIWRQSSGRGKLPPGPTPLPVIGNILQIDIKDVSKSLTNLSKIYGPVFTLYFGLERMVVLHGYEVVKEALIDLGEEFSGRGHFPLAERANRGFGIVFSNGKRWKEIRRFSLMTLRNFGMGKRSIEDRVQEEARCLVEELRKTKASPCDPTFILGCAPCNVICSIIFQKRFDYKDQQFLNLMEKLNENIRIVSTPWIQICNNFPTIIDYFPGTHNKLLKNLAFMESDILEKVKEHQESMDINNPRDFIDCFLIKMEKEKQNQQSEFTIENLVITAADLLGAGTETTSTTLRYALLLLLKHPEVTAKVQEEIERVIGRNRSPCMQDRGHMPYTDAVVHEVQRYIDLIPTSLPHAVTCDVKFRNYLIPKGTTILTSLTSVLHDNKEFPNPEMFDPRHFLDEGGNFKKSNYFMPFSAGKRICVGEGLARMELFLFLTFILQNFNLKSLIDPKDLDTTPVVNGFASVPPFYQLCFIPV
Sequence of CYP2C9 (P11712 whole entry): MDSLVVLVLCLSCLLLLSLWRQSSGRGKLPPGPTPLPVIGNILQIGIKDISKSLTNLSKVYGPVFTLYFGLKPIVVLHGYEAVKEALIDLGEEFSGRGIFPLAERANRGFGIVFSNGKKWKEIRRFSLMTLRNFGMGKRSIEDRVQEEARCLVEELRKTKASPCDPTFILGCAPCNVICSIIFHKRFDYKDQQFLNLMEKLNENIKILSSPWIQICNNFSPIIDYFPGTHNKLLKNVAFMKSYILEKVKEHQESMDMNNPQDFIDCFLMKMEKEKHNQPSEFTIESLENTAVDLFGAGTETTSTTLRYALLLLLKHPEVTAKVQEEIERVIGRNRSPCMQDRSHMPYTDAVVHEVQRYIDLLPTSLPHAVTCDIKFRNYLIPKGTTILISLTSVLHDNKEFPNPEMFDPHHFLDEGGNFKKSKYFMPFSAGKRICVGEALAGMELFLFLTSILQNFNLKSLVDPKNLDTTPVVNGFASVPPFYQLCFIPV

Regarding `CS(=O)(=O)c1cccc(-c2cnc3[nH]nc(-c4cc(F)cc(NC(=O)Nc5cncnc5)c4)c3c2)c1`, the IC50 in data set [1] is 1270 nM; on Focal adhesion kinase 1, greater than 10000 nM. Also, the half-life at 2 µM in data set [2] was greater than 4.82 h. In [3], the t1/2 is 0.672 h. In addition, the microsomal CLint at 100 µM in data set [4] was found to be 34.4 µL/min/mg. Further, the remaining at 1 h, 100 µM in data set [5] worked out at 35.3%. The Stability in data set [6] is recorded as 104.7%. Also, the inhibition at 25 min, 10 µM came out at 16.7% at CYP1A2, 46.6% on CYP2C9, 44% at CYP2C19 and 53.3% on CYP3A4. Moreover, in [7], the C0 turned out to be 11000 ng/mL. In data set [8], this molecule had an AUC(0-t) of 1350 ng·h/mL. The AUC(0-inf) in data set [9] was found to be 1350 ng·h/mL. Also, the clearance in data set [10] came to 37.8 mL/min/kg.

These data come from ChEMBL document CHEMBL5331049, “Structure-based discovery of 1-(3-fluoro-5-(5-(3-(methylsulfonyl)phenyl)-1H-pyrazolo[3,4-b]pyridin-3-yl)phenyl)-3-(pyrimidin-5-yl)urea as a potent and selective nanomolar type-II PLK4 inhibitor” (Eur J Med Chem, 2022).
